Source: US10357481B2 (MERCK SHARP & DOHME CORP., priority 2015, dated 2019)

molecular target: T1, human PDE2A1 (Homo sapiens, UniProt O00408); experiment: IMAP FP PDE selectivity panel, human PDE2A1; assay type: biochemical; conditions: Lab B; read-out: Human PDE2 Ki (nM) Lab B
T1 construct: GST; purchased BPS Bioscience (San Diego, Calif.) 60020; host or cells: insect cells
Description: Selectivity for PDE2, as compared to other PDE families, was assessed using the IMAP® technology. Human PDE10A2 enzyme was prepared from cytosolic fractions of transiently transfected HEK cells.
Assays for PDE 1 through 11 were performed in parallel at room temperature in 384-well microtiter plates with an incubation volume of 20.2 μL. Solutions of test compounds were prepared in DMSO and serially diluted with DMSO to yield 30 μL of each of ten solutions differing by 3-fold in concentration, at 32 serial dilutions per plate. […] A Labcyte POD 810 (Labcyte, Sunnyvale, Calif.) was used to dispense 200 nL from each well of the titration plate to make eleven copies of the assay plate for each titration, one copy for each PDE enzyme. A solution of each enzyme (dilution from aliquots, sufficient to produce 20% substrate conversion) and a separate solution of FAM-labeled cAMP or FAM-labeled cGMP from Molecular Devices (Sunnyvale, Calif., product # R7506 or cGMP#R7508), at a final concentration of 50 nM were made in the assay buffer (10 mM Tris HCl, pH 7.2, 10 mM MgCl2, 0.05% NaN3 0.01% Tween-20, and 1 mM DTT). Note that the substrate for PDE2 is 50 nM FAM cAMP containing 1000 nM of cGMP. The enzyme and the substrate were then added to the assay plates in two consecutive additions of 10 μL and then shaken to mix. The reaction was allowed to proceed at room temperature for 60 minutes. A binding solution was then made from the kit components, comprised of 80% Solution A, 20% Solution B and binding reagent at a volume of 1/600 the total binding solution. The enzymatic reaction was stopped by addition of 60 μL of the binding solution to each well of the assay plate. The plates were sealed and shaken for 10 seconds. The plates were incubated at room temperature for one hour, then the parallel and perpendicular fluorescence was measured using a Tecan Genios Pro plate reader (Tecan, Switzerland). […] The intrinsic PDE2 inhibitory activity of a compound which may be used in accordance with the present invention may be determined by these assays.

T1 sequence (O00408 1-920 isoform O00408-2): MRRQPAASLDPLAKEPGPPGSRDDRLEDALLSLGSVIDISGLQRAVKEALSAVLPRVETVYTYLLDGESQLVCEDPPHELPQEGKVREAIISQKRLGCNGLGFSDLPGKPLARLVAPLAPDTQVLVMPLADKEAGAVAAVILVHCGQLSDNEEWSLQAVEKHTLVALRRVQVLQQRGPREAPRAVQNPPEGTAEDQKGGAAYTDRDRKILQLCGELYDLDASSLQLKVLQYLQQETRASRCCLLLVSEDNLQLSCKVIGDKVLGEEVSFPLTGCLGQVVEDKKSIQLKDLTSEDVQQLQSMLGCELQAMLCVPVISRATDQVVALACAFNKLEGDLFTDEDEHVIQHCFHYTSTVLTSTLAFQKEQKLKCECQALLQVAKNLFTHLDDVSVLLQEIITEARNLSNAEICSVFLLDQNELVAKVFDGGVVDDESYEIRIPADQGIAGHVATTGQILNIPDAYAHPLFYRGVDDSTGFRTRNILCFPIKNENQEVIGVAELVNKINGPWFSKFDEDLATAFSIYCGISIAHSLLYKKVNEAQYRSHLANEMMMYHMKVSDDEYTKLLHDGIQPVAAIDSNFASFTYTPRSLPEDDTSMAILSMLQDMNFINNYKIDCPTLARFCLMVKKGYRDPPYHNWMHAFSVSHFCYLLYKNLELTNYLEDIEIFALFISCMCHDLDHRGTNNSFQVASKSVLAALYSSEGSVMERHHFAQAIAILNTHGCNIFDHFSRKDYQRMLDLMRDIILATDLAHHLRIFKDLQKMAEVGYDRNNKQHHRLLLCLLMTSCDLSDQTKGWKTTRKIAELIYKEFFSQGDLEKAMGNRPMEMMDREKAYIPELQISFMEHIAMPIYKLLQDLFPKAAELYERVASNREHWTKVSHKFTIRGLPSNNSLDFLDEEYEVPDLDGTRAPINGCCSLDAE

SMILES	Ki [nM]
Cc1cc(NC(c2ccc(-c3ccccc3)cc2)C(C)(C)O)n2ncnc2n1 (single isomer, unassigned) [Example 127, (1R or S)-1-Biphenyl-4-yl-2-methyl-1-[(5-methyl[1,2,4]triazolo[1,5-a]pyrimidin-7-yl)amino]propan-2-ol]	21
C[C@@H](Nc1cc(CO)nc2ncnn12)c1ccc(C(F)(F)F)c(F)c1 [Example 80, [7-({(1R)-1-[3-Fluoro-4-(trifluoromethyl)phenyl]ethyl}amino)[1,2,4]triazolo[1,5-a]pyrimidin-5-yl]methanol]	387
COCc1cc(N[C@@H](c2ccc(C(F)(F)F)c(F)c2)C(C)(C)C)n2ncnc2n1 [Example 76, N-{(1R)-1-[3-Fluoro-4-(trifluoromethyl)phenyl]-2,2-dimethylpropyl}-5-(methoxymethyl)[1,2,4]triazolo [1,5-a]pyrimidin-7-amine]	969
Cc1cc(NC(c2ccc(-c3ccccc3)cc2)C(C)(C)O)n2ncnc2n1 (single isomer, unassigned) [Example 126, (1S or R)-1-Biphenyl-4-yl-2-methyl-1-[(5-methyl[1,2,4]triazolo[1,5-a]pyrimidin-7-yl)amino]propan-2-ol]	> 2960
Cc1cc(NC2(c3ccc(SC(F)(F)F)cc3)CC2)n2ncnc2n1 [Example 59, 5-Methyl-N-(1-{4-[(trifluoromethyl)sulfanyl]phenyl}cyclopropyl)[1,2,4]triazolo [1,5-a]pyrimidin-7-amine]	72
Cc1cc(N[C@H](c2ccc(OC(F)(F)F)c(Cl)c2)C(C)(C)O)n2ncnc2n1 [Example 103, (1R)-1-[3-Chloro-4-(trifluoromethoxy)phenyl]-2-methyl-1-[(5-methyl[1,2,4]triazolo[1,5-a]pyrimidin-7-yl)amino]propan-2-ol]	34
FCc1cc(NC2(c3ccc(C(F)(F)F)c(F)c3)CC2)n2ncnc2n1 [Example 81, 5-(Fluoromethyl)-N-{1-[3-fluoro-4-(trifluoromethyl)phenyl]cyclopropyl}[1,2,4]triazolo[1,5-a]pyrimidin-7-amine]	31
CC(C)(O)C(Nc1cc(C(F)(F)F)nc2ncnn12)c1ccc(OC(F)(F)F)cc1F (single isomer, unassigned) [Example 171, (1S or R)-1-[2-Fluoro-4-(trifluoromethoxy)phenyl]-2-methyl-1-{[5-(trifluoromethyl) [1,2,4]triazolo [1,5-a]pyrimidin-7-yl]amino} propan-2-ol]	~1560
Cc1cc(NC(c2ccc(OC(F)(F)F)c(F)c2)C(C)(C)O)n2nc(C)nc2n1 (single isomer, unassigned) [Example 133, (1R or S)-1-[(2,5-Dimethyl[1,2,4]triazolo[1,5-a]pyrimidin-7-yl)amino]-1-[3-fluoro-4-(tri-fluoromethoxy)phenyl]-2-methylpropan-2-ol]	18
Cc1cc(N[C@@H](c2ccc(C(F)(F)F)cc2)C(C)(C)C)n2ncnc2n1 [Example 26, N-{(1R)-2,2-Dimethyl-1-[4-(trifluoromethyl)phenyl]propyl}-5-methyl[1,2,4]triazolo[1,5-a] pyrimidin-7-amine]	11
CC(C)c1cc(NC(c2ccc(OC(F)(F)F)c(F)c2)C(C)(C)O)n2ncnc2n1 (single isomer, unassigned) [Example 138, (1S or R)-1-[3-Fluoro-4-(trifluoro-methoxy)phenyl]-2-methyl-1-{[5-(1-methylethyl) [1,2,4]triazolo [1,5-a]pyrimidin-7-yl]amino} propan-2-ol]	~1570
Cc1cc(NC(c2ccc(OC(F)(F)F)cc2C)C(C)(C)O)n2ncnc2n1 (single isomer, unassigned) [Example 128, (1S or R)-2-Methyl-1-[(5-methyl[1,2,4]triazolo[1,5-a]pyrimidin-7-yl)amino]-1-[2-methyl-4-(trifluoromethoxy)phenyl]propan-2-ol]	> 2960
Cc1cc(N[C@H](c2ccc(C(F)(F)F)cc2)C(C)(C)O)n2ncnc2n1 [Example 95, (1R)-2-Methyl-1-[(5-methyl [1,2,4]triazolo[1,5-a]pyrimidin-7-yl)amino]-1-[4-(trifluoromethyl)phenyl]propan-2-ol]	> 2960
Cc1cc(N[C@@H](c2ccc(C(F)(F)F)cc2)C(C)(C)O)n2ncnc2n1 [Example 94, (1S)-2-Methyl-1-[(5-methyl [1,2,4]triazolo[1,5-a]pyrimidin-7-yl)amino]-1-[4-(trifluoromethyl)phenyl]propan-2-ol]	17

The next lines start with the values.

Ki [nM]	SMILES
150	CC(C)(O)[C@@H](Nc1cncc2ncnn12)c1ccc(C(F)(F)F)cc1 [Example 287, (1S)-2-Methyl-1-([1,2,4]triazolo[1,5-a]pyrazin-5-ylamino)-1-[4-(trifluoromethyl)phenyl]propan-2-ol]
40	Cc1cc(N[C@@H](c2ccc(C(F)(F)F)c(F)c2)C(C)(C)C)n2nc(CCCO)nc2n1 [Example 249, (R)-3-(7-(1-(3-Fluoro-4-(trifluoromethyl)phenyl)-2,2-dimethylpropylamino)-5-methyl-[1,2,4]triazolo[1,5-a]pyrimidin-2-yl)propan-1-ol]
22	Cc1cc(NC2(c3ccc(C(F)(F)F)c(F)c3)CC2)n2nc(N)nc2n1 [Example 255, N^7-{1-[3-Fluoro-4-(trifluoromethyl)phenyl]cyclopropyl}-5-methyl[1,2,4]triazolo[1,5-a]pyrimidine-2,7-diamine]
13	CN(C)c1cc(NC2(c3ccc(C(F)(F)F)c(F)c3)CC2)n2ncnc2n1 [Example 239, N^7-(1-(3-Fluoro-4-(trifluoromethyl)phenyl)cyclopropyl)-N,N-dimethyl-[1,2,4]triazolo[1,5-a]pyrimidine-5,7-diamine]
209	CC(C)(O)[C@@H](Nc1cncc2ncnn12)c1ccc(OC(F)(F)F)c(F)c1 [Example 286, (1S)-1-[3-Fluoro-4-(trifluoromethoxy)phenyl]-2-methyl-1-([1,2,4]triazolo[1,5-a]pyrazin-5-ylamino)propan-2-ol]
56	Cc1cc(N[C@@H](c2ccc(C(F)(F)F)c(F)c2)C(C)(C)C)n2nc(C)nc2n1 [Example 202, (R)-N-(1-(3-Fluoro-4-(trifluoromethyl)phenyl)-2,2-dimethylpropyl)-2,5-dimethyl-[1,2,4]triazolo [1,5-a]pyrimidin-7-amine]
448	Cc1cc(NC(c2ccc(OC(F)(F)F)c(F)c2)C2COC2)n2ncnc2n1 (single isomer, unassigned) [Example 229, (R)- or (S)-N-((3-Fluoro-4-(trifluoromethoxy)phenyl)(oxetan-3-yl)methyl)-5-methyl-[1,2,4]triazolo [1,5-a]pyrimidin-7-amine]
1.1	CC(C)(O)C(Nc1cc(Cl)nc2ncnn12)c1ccc(C(F)(F)F)c(F)c1 (single isomer, unassigned) [Example 223, (R)- or (S)-1-(5-Chloro-[1,2,4]triazolo [1,5-a]pyrimidin-7-ylamino)-1-(3-fluoro-4-(trifluoromethyl)phenyl)-2-methylpropan-2-ol]
156	CC(C)(C)[C@@H](Nc1cncc2ncnn12)c1ccc(C(F)(F)F)c(F)c1 [Example 284]
> 2960	COCC(Nc1cc(C)nc2ncnn12)c1ccc(C(F)(F)F)c(F)c1 (single isomer, unassigned) [Example 209, (R)- or (S)-N-(1-(3-Fluoro-4-(trifluoromethyl)phenyl)-2-methoxyethyl)-5-methyl-[1,2,4]triazolo [1,5-a]pyrimidin-7-amine]
